Reference: US7893266B2, “Detection of cancer cells in vitro using sigma-2 receptor ligands as radiotracers” (Washington University, priority 2003, dated 2011)
Like-named read-outs stand apart in the source and are kept apart here.

Target: T1, σ2 receptor (Rattus norvegicus, UniProt Q5U3Y7)
T1 construct: rat liver membrane homogenates (35 μg of protein); from tissue; host or cells: rat liver membrane homogenates
T1 sequence (Q5U3Y7 1-176): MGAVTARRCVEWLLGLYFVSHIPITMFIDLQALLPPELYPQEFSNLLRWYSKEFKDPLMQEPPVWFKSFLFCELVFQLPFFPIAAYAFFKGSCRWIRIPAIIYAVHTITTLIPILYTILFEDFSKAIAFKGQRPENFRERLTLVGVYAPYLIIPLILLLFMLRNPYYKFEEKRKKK
Experiment: σ2 receptor binding assay, [3H]DTG, rat liver membrane homogenates
Description: The σ2 receptor binding assay was conducted using rat liver membrane homogenates (35 μg of protein). […] Incubations were carried out in 50 mM Tris-HCl (pH 8.0) for 120 min at 25° C. in a total incubation volume of 0.5 ml. Test compounds were added in concentrations ranging from 0.005 to 1000 nM. […] Filters were washed twice with 5 ml of ice cold buffer. Nonspecific binding was determined in the presence of 5 μM DTG.

Ki (Mean ± SEM, rat liver, [3H]DTG, read-out: Ki σ2): 13.3 ± 0.1 nM
Ki (Table I, unit inferred, read-out: σ2): 13.3 nM
Structure (SMILES): COc1cc2c(cc1OC)CN(CCNC(=O)c1cc(C)ccc1OC)CC2 [Compound 9]
